Legend:
Assay type in all cases: cell-based
Proteus vulgaris = assay: MIC against Gram-negative bacteria: Proteus vulgaris; settings: 5×10^5 CFU/mL
In short: (§1)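 MIC, the lowest recombinant protein concentration giving no bacterial growth, found by two-fold serial dilution of human EGF-domain proteins in triplicate. Inoculum 5×10^5 CFU/mL in LB from cultures at McFarland 0.5; plates incubated at 37° C, 175 rpm shaking.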

Enterobacter cloacae = assay: MIC against Gram-negative bacteria: Enterobacter cloacae; settings: 5×10^5 CFU/mL
In short: as §1

Serratia marcescens = assay: MIC against Gram-negative bacteria: Serratia marcescens; settings: 5×10^5 CFU/mL
In short: as §1

Pseudomonas aeruginosa = assay: MIC against Gram-negative bacteria: Pseudomonas aeruginosa; settings: 5×10^5 CFU/mL
In short: as §1

Proteus mirabilis = assay: MIC against Gram-negative bacteria: Proteus mirabilis; settings: 5×10^5 CFU/mL
In short: as §1

Aeromonas hydrophila = assay: MIC against Gram-negative bacteria: Aeromonas hydrophila; settings: 5×10^5 CFU/mL
In short: as §1

E. coli DH5α = assay: Antibacterial activity: MIC and growth curve against E. coli DH5α in 96-well plate; settings: minimal inhibitory concentration against E. coli DH5α; 96-well plate, 5×10^5 CFU/mL, 37° C., judged after 8 h
In short: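 MIC taken as lowest protein level with no bacterial growth, tracked by A600 every 30 min during 37 °C, 175 rpm culture. Two-fold protein series 50-12.5 μg/mL final, triplicate wells, against 5×10^5 CFU/mL of LB-washed mid-log cells.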

Citrobacter diversus = assay: MIC against Gram-negative bacteria: Citrobacter diversus; settings: 5×10^5 CFU/mL
In short: as §1

E. coli BL21 = assay: MIC against Gram-negative bacteria: E. coli BL21; settings: 5×10^5 CFU/mL
In short: as §1

Moraxella catarrhalis = assay: MIC against Gram-negative bacteria: Moraxella catarrhalis; settings: 5×10^5 CFU/mL
In short: as §1

Klebsiella pneumonia = assay: MIC against Gram-negative bacteria: Klebsiella pneumonia; settings: 5×10^5 CFU/mL
In short: as §1

[1] = Proteus vulgaris, 10 h cultivation at 37° C.
[2] = Enterobacter cloacae, 10 h cultivation at 37° C.
[3] = Serratia marcescens, 10 h cultivation at 37° C.
[4] = Pseudomonas aeruginosa, 10 h cultivation at 37° C.
[5] = Proteus mirabilis, 10 h cultivation at 37° C.
[6] = Aeromonas hydrophila, 10 h cultivation at 37° C.
[7] = Citrobacter diversus, 10 h cultivation at 37° C.
[8] = E. coli BL21, 10 h cultivation at 37° C.
[9] = Moraxella catarrhalis, 10 h cultivation at 37° C.
[10] = Klebsiella pneumonia, 10 h cultivation at 37° C.

PRT1373 (STRSCPGGCRGRGQCLDGRCVCEDGYSGEDC; listed as Homo sapiens)
12.5 µg/mL: MIC against E. cloacae (Enterobacter cloacae; [2]) | MIC against S. marcescens (Serratia marcescens; [3]) | MIC against P. aeruginosa (Pseudomonas aeruginosa; [4]) | MIC against A. hydrophila (Aeromonas hydrophila; [6]) | MIC against E. coli BL21 (E. coli BL21; [8]) | MIC against M. catarrhalis (Moraxella catarrhalis; [9]) | MIC against K. pneumonia (Klebsiella pneumonia; [10])
50 µg/mL: MIC against P. vulgaris (Proteus vulgaris; [1]) | MIC against C. diversus (Citrobacter diversus; [7])
25 µg/mL: MIC against P. mirabilis (Proteus mirabilis; [5]) | MIC (E. coli DH5α)

PRT1405 (PTTQCIDPQCGGRGICIMGSCACNSGYKGESCE; listed as Homo sapiens)
50 µg/mL: MIC against P. vulgaris (Proteus vulgaris; [1])
12.5 µg/mL: MIC against E. cloacae (Enterobacter cloacae; [2]) | MIC against S. marcescens (Serratia marcescens; [3]) | MIC against P. aeruginosa (Pseudomonas aeruginosa; [4]) | MIC against P. mirabilis (Proteus mirabilis; [5]) | MIC against A. hydrophila (Aeromonas hydrophila; [6]) | MIC (E. coli DH5α) | MIC against C. diversus (Citrobacter diversus; [7]) | MIC against E. coli BL21 (E. coli BL21; [8]) | MIC against M. catarrhalis (Moraxella catarrhalis; [9]) | MIC against K. pneumonia (Klebsiella pneumonia; [10])

PRT874 (CNCNQIGSVHDRCNETGFCECREGAAGPKCDDCLPTHYWRQGCYP; listed as Homo sapiens)
12.5 µg/mL: MIC (μg/mL) P. vulgaris (Proteus vulgaris; P. vulgaris, 10 h cultivation at 37° C.) | MIC (μg/mL) E. cloacae (Enterobacter cloacae; E. cloacae, 10 h cultivation at 37° C.) | MIC (μg/mL) S. marcescens (Serratia marcescens; S. marcescens, 10 h cultivation at 37° C.) | MIC (μg/mL) P. aeruginosa (Pseudomonas aeruginosa; P. aeruginosa, 10 h cultivation at 37° C.) | MIC (μg/mL) P. mirabilis (Proteus mirabilis; P. mirabilis, 10 h cultivation at 37° C.) | MIC (μg/mL) A. hydrophila (Aeromonas hydrophila; A. hydrophila, 10 h cultivation at 37° C.) | MIC (E. coli DH5α) | MIC (μg/mL) C. diversus (Citrobacter diversus; C. diversus, 10 h cultivation at 37° C.) | MIC (μg/mL) K. pneumonia (Klebsiella pneumonia; K. pneumonia, 10 h cultivation at 37° C.)
25 µg/mL: MIC (μg/mL) E. coli BL21 (E. coli BL21; [8]) | MIC (μg/mL) M. catarrhalis (Moraxella catarrhalis; M. catarrhalis, 10 h cultivation at 37° C.)

PRT2 (DQLICVNENGGCEQYCSDHTGTKRSCRCHEGYSLLADGVSCT; listed as Homo sapiens)
12.5 µg/mL: MIC (μg/mL) P. vulgaris (Proteus vulgaris; Proteus vulgaris, 96-well plate, 37° C., 10 h) | MIC (μg/mL) S. marcescens (Serratia marcescens; Serratia marcescens, 96-well plate, 37° C., 10 h) | MIC (μg/mL) M. catarrhalis (Moraxella catarrhalis; Moraxella catarrhalis, 96-well plate, 37° C., 10 h)
25 µg/mL: MIC (μg/mL) E. cloacae (Enterobacter cloacae; Enterobacter cloacae, 96-well plate, 37° C., 10 h) | MIC (μg/mL) P. mirabilis (Proteus mirabilis; Proteus mirabilis, 96-well plate, 37° C., 10 h) | MIC (μg/mL) A. hydrophila (Aeromonas hydrophila; Aeromonas hydrophila, 96-well plate, 37° C., 10 h) | MIC (E. coli DH5α) | MIC (μg/mL) C. diversus (Citrobacter diversus; Citrobacter diversus, 96-well plate, 37° C., 10 h)
50 µg/mL: MIC (μg/mL) P. aeruginosa (Pseudomonas aeruginosa; Pseudomonas aeruginosa, 96-well plate, 37° C., 10 h) | MIC (μg/mL) E. coli BL21 (E. coli BL21; E. coli BL21, 96-well plate, 37° C., 10 h) | MIC (μg/mL) K. pneumonia (Klebsiella pneumonia; Klebsiella pneumonia, 96-well plate, 37° C., 10 h)

PRT1476 (DVDECSLKPSICGTAVCKNIPGDFECECPEGYRYNLKSKSCE; listed as Homo sapiens)
12.5 µg/mL: MIC against P. vulgaris (Proteus vulgaris; [1]) | MIC against E. cloacae (Enterobacter cloacae; [2]) | MIC against P. aeruginosa (Pseudomonas aeruginosa; [4]) | MIC (E. coli DH5α) | MIC against C. diversus (Citrobacter diversus; [7])
50 µg/mL: MIC against P. mirabilis (Proteus mirabilis; [5]) | MIC against A. hydrophila (Aeromonas hydrophila; [6]) | MIC against K. pneumonia (Klebsiella pneumonia; [10])
25 µg/mL: MIC against S. marcescens (Serratia marcescens; [3]) | MIC against E. coli BL21 (E. coli BL21; [8]) | MIC against M. catarrhalis (Moraxella catarrhalis; [9])

PRT555 (CDCSAAGTQGNACRKDPRVGRCLCKPNFQGTHCELCAPGFYGPGCQP; listed as Homo sapiens)
12.5 µg/mL: MIC against S. marcescens (Serratia marcescens; 96-well plate, 37° C., 10 h) | MIC against P. aeruginosa (Pseudomonas aeruginosa; 96-well plate, 37° C., 10 h) | MIC against C. diversus (Citrobacter diversus; 96-well plate, 37° C., 10 h)
25 µg/mL: MIC against P. vulgaris (Proteus vulgaris; 96-well plate, 37° C., 10 h) | MIC against A. hydrophila (Aeromonas hydrophila; 96-well plate, 37° C., 10 h) | MIC against E. coli BL21 (E. coli BL21; 96-well plate, 37° C., 10 h) | MIC against M. catarrhalis (Moraxella catarrhalis; 96-well plate, 37° C., 10 h) | MIC against K. pneumonia (Klebsiella pneumonia; 96-well plate, 37° C., 10 h)
50 µg/mL: MIC against E. cloacae (Enterobacter cloacae; 96-well plate, 37° C., 10 h) | MIC against P. mirabilis (Proteus mirabilis; 96-well plate, 37° C., 10 h) | MIC (E. coli DH5α)
